As usually defined, the IC50 is the point on the concentration scale where inhibition reaches its midpoint. The low end stands for greater potency, the high end for weaker potency.

This is an account of results in PMC7198493 (Nature Communications, 2020).

Holding throughout (format): binding
In assay [1] the target is T1, olfactory marker protein (OMP) (Mus musculus, UniProt Q64288).
T1 construct: Rluc-OMP fusion, wild type
T1 sequence (Q64288 2-163): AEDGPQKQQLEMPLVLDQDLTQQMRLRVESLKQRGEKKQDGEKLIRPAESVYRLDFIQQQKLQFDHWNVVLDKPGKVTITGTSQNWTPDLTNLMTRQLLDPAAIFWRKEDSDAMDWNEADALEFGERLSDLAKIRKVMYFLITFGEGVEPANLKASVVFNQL
The assay is described as follows: competitive BRET displacement of 8NBD-cAMP from Rluc-OMP in HEK293T lysate. For orientation: BRET reads energy transfer from a luciferase to a nearby fluorophore.

In assay [2] the target is T2, olfactory marker protein (OMP) (Mus musculus, UniProt Q64288, G126E).
T2 construct: Rluc-OMP fusion, G126E mutant
T2 sequence (Q64288 2-163 G126E): T1 sequence (Q64288 2-163) with G125E
Description: BRET from mutant Rluc-OMP to 8NBD-cAMP.

Assay [3] concerns the target T1, olfactory marker protein (OMP). The assay is described as follows: BRET from Rluc-OMP to fluorescent 8NBD-cAMP, dose-response (EC50 taken as apparent Kd).

Changes are numbered by the printed parent chain.

`Nc1nc2c(ncn2[C@@H]2O[C@@H]3COP(=O)(O)O[C@H]3[C@H]2O)c(=O)[nH]1` [cGMP] registered an IC50 in assay [1] of 11 µM.
As to `Nc1ncnc2c1nc(SCCNc1ccc([N+](=O)[O-])c3nonc13)n2[C@@H]1O[C@@H]2COP(=O)(O)O[C@H]2[C@H]1O` [8NBD-cAMP], in assay [2], the “BRET from mutant Rluc-OMP to 8NBD-cAMP” value was “pocket A-mutated Rluc-OMP^G126E retained the low-affinity interaction, whereas the pocket B mutants lost their interaction with 8NBD-cAMP”. In assay [3], the Kd is roughly 1900 nM.
